Calls of active or inactive are those of the source. How the calls were made is not given here. Where only a bound is given, the exact number is not on record here.

A word on the IC50: it is the midpoint of a concentration-inhibition curve.

This experiment has as its system S. cerevisiae tim23-1 mutant growth, luminescence. In words: tim23-1 mutant yeast growth inhibitors, dose response, luminescence, uHTS hits (AID 493002).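 Further: yeast grown roughly 22 hours at 25 °C before the luminescence read.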

`Cc1nc2nc(-c3cccs3)[nH]c2cc1Br`: the IC50 is 7.8 µM. The figure for `O=C(N/N=C/C(Br)=C/c1ccccc1)c1ccccc1F` is 12.3 µM; for `COc1ccc(C(=O)N/N=C/c2ccc(OC)c(COc3ccc(F)cc3F)c2)cc1` it is 24.9 µM. The figure for `COc1ccc(C(=O)N2CCc3ccc(NC(=O)c4ccccn4)cc3C2)cc1F` is 23.8 µM.

For the molecule `COc1ccc(OCC(=O)Nc2ccc3c(c2)CCC3)cc1`, the IC50 was 15.6 µM. The figure for `Cc1ccc2nc(N3CCN(C=O)CC3)nc(-c3ccccc3)c2c1` is 11.9 µM; for `Clc1nssc1=Nc1nncs1` it is 3.05 µM; for `Nc1ncnc2c1ncn2[C@@H]1O[C@H](CO)C[C@H]1O` it is 14 µM.

With `Cc1cc(Nc2ccccc2)nn1C(=O)c1ccccc1`, the IC50 was 12 µM. For `NNC(=O)c1nc(-c2ccccc2)cc(-c2ccccc2)n1` the value was 6.65 µM; for `CN1C(=O)/C(=C\c2ccco2)N=C1c1ccc(Cl)cc1Cl`, 12.8 µM; for `Cc1ccc(O)c(N=Cc2cc(Cc3ccccc3)cc([N+](=O)[O-])c2O)c1`, 10.6 µM. On to `CCc1sc(C(=O)Nc2nccs2)cc1C`, for which the IC50 was 16 µM. `Cc1ccc(NC(=O)c2ccc(Cl)c(NC(=O)c3cccs3)c2)cc1`: the IC50 is 14.5 µM. For `O=c1c2ccccc2nc2c3ccccc3cnn12` the value was 15 µM; for `O=C(Nc1ccc2c(c1)OCCO2)c1cccc(Cl)c1`, 11.6 µM; for `CCC(=O)OCC(=O)[C@@]1(OC(=O)CC)[C@@H](C)C[C@H]2[C@@H]3CCC4=CC(=O)C=C[C@]4(C)[C@@]3(Cl)[C@@H](O)C[C@@]21C`, 14.9 µM. The figure for `CC(C)(C)N1C(=O)c2ccc(C(=O)Nc3nccs3)cc2C1=O` is 20.3 µM. Consider `COc1ccc(/C=C/C(=O)Nc2ccc3c(c2)CCC3)cc1OC`, for which the IC50 is 8.81 µM. For `Cc1ccc2[nH]cc(C(=O)CCl)c2c1`, the IC50 was 6.02 µM. For `Cc1cc(C(=O)Nc2ccc(Br)cn2)sc1C` the value was 21.1 µM; for `N#C/C(=C\c1ccc(O)cc1)c1nc2ccccc2o1`, 6.42 µM; for `O=Cc1cnc2ccccc2c1-c1ccccc1`, 6.97 µM.

As for `COc1cccc(CNn2c(-c3cccc(C)c3)nc3ccccc3c2=O)c1O`, the IC50 was 10.1 µM.

For `CCOC(=O)c1ccc(NC(=O)/C=C/c2cccs2)cc1`, the IC50 was 26.6 µM. For `CC1CCCCN1C(=O)Nc1cccc(Cl)c1` (stereo unspecified) the value was 14.1 µM; for `Cc1ccc(Nc2nc(Cl)nc(NC(C)(C)C)n2)cc1`, 16 µM; for `O=C(Nc1cccc(F)c1)N1CC=C(c2ccc(Cl)cc2)CC1`, 12.8 µM. Regarding `CN=c1scc(-c2cccs2)n1/N=C/c1ccc(O)c(O)c1O`, the IC50 is 10.5 µM. For `CCCN1C(=O)C(=O)c2cc(Cl)ccc21` the value was 19.1 µM; for `COc1cc(/C=C/C(=O)OCC(=O)c2ccc(OC(F)F)cc2)ccc1O`, 14.6 µM; for `CCCn1nnc(NC(=O)c2sc3ccccc3c2Cl)n1`, 20.7 µM.

On to `O=C(N/N=C/c1ccc(Br)s1)c1c[nH]c2ccccc12`, for which the IC50 was 14.9 µM. The figure for `Cc1[nH][nH]c(=O)c1C(c1ccc(-c2ccc(F)cc2)o1)c1c(C)[nH][nH]c1=O` is 7.74 µM. The figure for `CC(C)(C)c1ccc(OCC(=O)NCc2ccco2)c(Br)c1` is 5.94 µM; for `c1ccc(-c2cc3ccccc3cn2)cc1` it is 8.34 µM; for `Oc1ccccc1-c1cc(-c2ccccc2)n[nH]1` it is 15.8 µM. For the molecule `O=C(CSc1cccc[n+]1[O-])CSc1cccc[n+]1[O-]`, the IC50 was 5.83 µM.

In the case of `CCC(C)C(=O)Nc1nc2ccc(OC)cc2s1` (stereo unspecified), the IC50 is 18.1 µM. For `Cc1ccc2nc(NC(=O)Cn3nc(C)c([N+](=O)[O-])c3C)sc2c1` the value was 6.13 µM; for `CCN1C(=O)/C(=C2\SC(N3CCCCC3)=NC2=O)c2ccccc21`, 17.8 µM.

As to `CCOC(=O)c1cccnc1SCc1cc(=O)n2ccccc2n1`, the IC50 is 9.96 µM. The figure for `c1ccc(N=Nc2cn[nH]c2-c2ccco2)cc1` is 11.3 µM; for `O=C1NN=C(c2ccc(Cl)cc2)CC1c1cccc(Br)c1` (stereo unspecified) it is > 100 µM (inactive). For `c1ccc(-c2cc3cc4c(cc3cn2)OCO4)cc1` the value was 17 µM; for `CC(C)n1cc(NC(=O)c2cc(-c3ccccc3)on2)cn1`, 7.69 µM; for `COc1ccc(C(=O)Nc2nc3ccccc3s2)c(OC)c1`, 5.92 µM. For `CN(C)c1c2ccccc2nc2c(F)c(F)c(F)c(F)c12` the value was 16.6 µM; for `O=C(c1cccnc1)C1Cc2ccccc2C1=O` (stereo unspecified), 9.94 µM.

For the molecule `CC1(C)c2cc(Cl)ccc2-n2c1cc(O)c(-c1ccccc1)c2=O`, the IC50 was 11.9 µM.

On to `COc1cc(/C=N/NC(=O)c2ccc(N)cc2)ccc1OC(=O)c1cccc(C)c1`, for which the IC50 was 9.83 µM.

For the molecule `O=C(COC(=O)CC1CCCC1)Nc1ccc(Cl)cc1`, the IC50 is 13.2 µM.

As for `O=C(Nc1ccccc1N(C(=O)c1ccco1)S(=O)(=O)c1cccs1)c1ccco1`, the IC50 is 9.78 µM. The figure for `COc1ccc(Nc2nc(N)c([N+](=O)[O-])c(NC3CCCCC3)n2)cc1` is 13.6 µM; for `Cc1ccc2oc(C(Cl)(Cl)Cl)cc(=O)c2c1` it is 4.38 µM; for `Cc1cccc(C(=O)Oc2cccc3c(O)cccc23)c1` it is 8.32 µM. For `Cc1ccc(CNc2oc(-c3cccs3)nc2C#N)cc1` the value was 25.6 µM. Regarding `Cc1ccc(-c2nnc(C)c(N3CCCC3)n2)cc1`, the IC50 was 16.6 µM. Consider `COc1cc(/C=C/[N+](=O)[O-])ccc1OC(=O)c1cc2ccccc2oc1=O`, for which the IC50 is 4.02 µM. The figure for `CCc1ccc(C2CC(=O)NC(SCC(=O)OC(C)C)=C2C#N)cc1` (stereo unspecified) is 18.2 µM.

`COC(=O)c1ccc(C(=O)OC)c(NC(=O)CSc2cccc[n+]2[O-])c1`: the IC50 is 4.4 µM.

Take `CC1CCN(c2nnc(N3CCC(C)CC3)c3ccccc23)CC1`: the IC50 is 34.9 µM. The figure for `Cc1cc(C(=O)CCl)c(C)n1CCc1ccc(Cl)cc1` is 3.7 µM; for `COc1cc2c(cc1OC)/C(=C/c1ccc(Cl)cc1)C(=O)OC2` it is 8.86 µM. For `COC(=O)c1ccc2nc(NC(=O)C3CC3)sc2c1` the value was 7.12 µM; for `N#C/C(N)=C(/C#N)N=Cc1cccc(Cl)c1`, 8.99 µM; for `CC(C)(C)c1ccc(Oc2ccc(N)cc2)cc1`, 4.63 µM. For `Cc1csc2nc(O)c(C(=O)NCCC3=CCCCC3)c(=O)n12` the value was 4.88 µM. As for `O=C(Nc1ccc2oc(-c3ccccc3)nc2c1)c1cccs1`, the IC50 is 0.39 µM.

`CCc1cccc2c(C(=O)CCl)c[nH]c12`: the IC50 is 9.27 µM. For `Cn1cc(C(=O)c2ccc(Cl)cc2)cc1-c1nc2ccccc2n1C` the value was 12.3 µM. `CC1CCC(NC(=O)c2cc(C3CC3)nn2-c2ccccc2)CC1` (stereo unspecified): the IC50 is 15.8 µM. For `Cc1ccc(NC(=O)c2cc(C)n(-c3ccccc3)c2C)cc1` the value was 21 µM; for `Cc1ccc(Nc2nc3ccccc3s2)c(C)c1`, 11.1 µM.

In the case of `Cc1ccn2cc(C(=O)Nc3ccc4c(c3)OCCO4)nc2c1`, the IC50 is 7.9 µM.

As to `O=C(N/N=C/c1ccc2cccnc2c1)c1ccco1`, the IC50 is 18.8 µM. For `Cn1nc(C(F)(F)F)c2cc(NC(=O)OCC(C)(C)C)sc21` the value was 28.2 µM; for `Cc1ccc2c(c1)C(=O)N1[C@H]3c4ccccc4OC[C@@H]3[C@H](c3ccccc3)[C@]1(C)C(=O)N2`, 4.99 µM. The figure for `Cc1ccc2c(c1)C(=O)C(=O)N2c1ccc(Cl)cc1` is 11.7 µM; for `COc1cccc(NC(=O)c2ccccc2)c1` it is 11.3 µM; for `CCOC(=O)Nc1cccc(NC(=O)c2ccccc2F)c1` it is 13.3 µM. The figure for `O=c1/c(=C/c2cccc3ccccc23)sc2ncnn12` is 7.13 µM. `Cc1ccc(C(=O)NC(=S)NCc2ccccc2)cc1`: the IC50 was 12.1 µM.

Regarding `CN(C)/C=C1/C=C(c2ccccc2)OC1=O`, the IC50 was 12 µM.

As to `Cn1c(C(=O)Nc2ccc3c(c2)OCCO3)cc2sccc21`, the IC50 was 12.1 µM. The figure for `O=C(Nc1nc2ccccc2s1)C1CCCN1S(=O)(=O)c1ccc(Cl)cc1` (stereo unspecified) is 8.08 µM; for `CC(C)n1ncc2c(C(=O)NCC(=O)Nc3ccccc3Br)cc(C3CC3)nc21` it is 16 µM.

Regarding `Oc1ccc(Cl)cc1CNc1cnc2ccccc2c1`, the IC50 was 15.3 µM. For `CC(=O)Nc1ncnc2c1c(-c1ccc(Cl)cc1)nn2C(C)(C)C` the value was 10 µM; for `O=C(N/N=C/C(Br)=C/c1ccccc1)c1cccs1`, 6.9 µM. For `O=C(Oc1ccc(=O)n(-c2ccccc2)n1)c1ccc(Cl)cc1` the value was 11.8 µM; for `CC1(S(=O)(=O)O)CC(=O)c2ccccc2C1=O` (stereo unspecified), 6.57 µM; for `COCCn1c(C)cc(C(=O)COC(=O)c2ccc([N+](=O)[O-])o2)c1C`, 6.98 µM. The figure for `CCNc1nc(N)c(C(=O)C23CC4CC(CC(C4)C2)C3)s1` is 12.4 µM; for `O=C(/C=C\Nc1cccc(F)c1)c1cccs1` it is 7.31 µM.

As to `CC(C)(C)c1csc(NC(=O)c2ccc(Br)o2)n1`, the IC50 was 9.04 µM. The figure for `O=C(/C=C/c1ccccc1)Oc1cccc2cccnc12` is 21.3 µM; for `CC1CCN(C(=O)c2ccc3c(c2)NC(=O)/C(=C/c2ccccc2)S3)CC1` it is 13.6 µM; for `COc1ccc(N2CCN(c3nc4cc(C)ccc4cc3C=O)CC2)cc1` it is 24.9 µM. For `O=C(Nc1ccccc1)C1C(c2ccccc2)C1(Cl)Cl` (stereo unspecified) the value was 14.9 µM. The figure for `C#CCOCCOCCOCCNc1nc(N2CCN(C(=O)CCCCCCCCCCNC(=O)[C@H](CCCCN)n3cc(C)nn3)CC2)nc(N2CCN(C(=O)CCCCCCCCCCNC(=O)[C@H](CCCN=C(N)N)n3cc(C[C@@H](C)CC)nn3)CC2)n1` is 10.4 µM; for `O=C(Nc1nc(-c2cccs2)c(-c2ccccc2)s1)c1ccco1` it is 11.5 µM; for `COc1cccc(Nc2nc(-c3ccccc3)nc3ccccc23)c1` it is 5.63 µM. Turning to `O=C(N/N=C/c1cc(Br)cc(Br)c1O)c1cccc(N2CCCC2=O)c1`, the IC50 is 6.37 µM. `O=C(N/N=C/c1ccc(Br)s1)c1cccs1`: the IC50 was 9.05 µM. Take `CCCCSC1=C(C#N)C(c2ccccc2C)CC(=O)N1` (stereo unspecified): the IC50 is 13.7 µM.

The record behind these values is PubChem BioAssay AID493002 (Sanford-Burnham Center for Chemical Genomics, 2010).
